# Assay results from patent publication US8785493B2, “Treatment of retroviral reservoirs exploiting oxidative stress” (Istituto Superiore di Sanita, priority 2008, dated 2014).
# Experiments:
# Assay type in all cases: cell-based
# [1] = test system: HIV-1 replication in latently HIV-1 infected monocytoid U1 cells
# [2] = test system: NF-kappaB (p65/p50) in Jurkat 8.4 cells; assay: NF-kappaB nuclear translocation, colorimetric p65 assay; set-up: dose or concentration left out as unconfirmed; conditions: auranofin, different incubation times, relative to TNF-alpha 1.5 h
# Protocol: Detection of NF-kappaB nuclear translocation. Nuclear extracts from control Jurkat 8.4 cells and cells treated with auranofin at different times of incubation were obtained using a nuclear extraction kit (Chemicon International), following the Manufacturer's instructions. NF-kappaB nuclear translocation was detected using a colorimetric transcription factor assay (Millipore) for the p65 subunit. Results were expressed as a percentage of the signal obtained in cells incubated with the potent NF-kappaB stimulating cytokine TNF-alpha (5 ng/ml) for 1.5 h, at which the peak of nuclear translocation of NF-kappaB is reached.
# [3] = test system: HIV-1 LTR in quiescently infected Jurkat 8.4 cells; assay: HIV-1 LTR-controlled GFP expression, flow cytometry, Jurkat clone 8.4
# our cell lines = assay: Toxicity of auranofin to the cell lines used; conditions: concentrations approx. two orders of magnitude superior to those of the present study, data not shown
# Text: Cell viability assay. Cell viability was quantitated using the methyl tetrazolium (MTT) procedure. Absorbance values were generated at a wavelength of 550 nm using 96-well ELISA readers and subtracted of the blank values using cell culture media in the absence of cells. Cell viability in the presence of the test compounds was expressed as a percentage of the cell viability of control untreated cell cultures.
# [4] = test system: HIV-1 LTR in Jurkat A1 cells; conditions: 72 h
# [5] = test system: HIV-1 replication in latently HIV-1 infected lymphocytic ACH-2 cells
substance,measurement,setting,value
"gold(1+); 3,4,5-triacetyloxy-6-(acetyloxymethyl)oxane-2-thiolate; triethylphosphanium [auranofin]","Effect on HIV-1 replication (p24), U1 cells","[1]; 0.125-0.5 μM, 24 h and 72 h",increased HIV-1 replication in a time- and dose-dependent manner
same,"Combined HIV-1 activating effect with MC2113, U1 cells","[1]; auranofin 0.25 μM plus MC2113 1 μM, 24 h",synergistic
same,NF-kappaB (p65) in nuclear extracts,[2],time-dependent NF-kappaB accumulation within the nuclei
same,"LTR-controlled GFP expression, Jurkat 8.4 cells","[3]; 72 h, gated live cells",dose-dependent shift in fluorescence
same,"GFP expression in combination with HDACI (MC2113), Jurkat 8.4 cells",[3]; auranofin 0.25 microM plus MC2113 1 microM,recruited the HDACi-unresponsive cells into the responding cell population
same,Toxicity to cell lines,our cell lines,toxic to our cell lines
same,"LTR-controlled GFP expression, Jurkat A1 cells",[4],induction of LTR-controlled expression of green-fluorescent protein (GFP)
same,"Effect on HIV-1 replication (p24), ACH-2 cells","[5]; 0.125-0.5 μM, 24 h and 72 h",increased HIV-1 replication in a time- and dose-dependent manner
same,"Combined HIV-1 activating effect with BSO, ACH-2 cells","[5]; auranofin plus BSO, percentage-of-synergism surface, three days",synergistic HIV-1 activating effects
same,"Combined HIV-1 activating effect with FeNTA, ACH-2 cells","[5]; percentage-of-synergism surface, three days",synergistic HIV-1 activating effects
